Where a name gives a salt, the structure may show the parent alone.
Key:
YAP/TAZ = YAP/TAZ nuclear localization in IPF patient-derived lung fibroblasts treated with dopaminergic agonists; format: cell-based, human; conditions: 10 μM, 2 hours
Method: IPF patient-derived lung fibroblasts cells treated 2 hours prior to fixation with diverse dopaminergic agonists (10 μM). N=4 different patient samples. % nuclear localization of YAP/TAZ was determined using automated imaging software. Scale bar represents 100 μm.
(§1) Media was then exchanged for the indicated conditions for each experiment. […] Cells or tissue sections were incubated overnight with mouse monoclonal antibody against αSMA (Sigma-Aldrich F3777), and/or a rabbit monoclonal antibody against YAP/TAZ (Cell Signaling D24E4) diluted 1:200 in PBS with 1% BSA. Cells were then washed and exposed to flourescence-conjugated secondary antibodies (Invitrogen) diluted 1:1000 and DAPI (Thermo Fisher Scientific). Images were taken with a Cytation5 (BioTek) microscope. For scoring αSMA positive cells (FIG. 12), an observer blinded to the treatment conditions counted αSMA-positive cells using a visual threshold for bright fibrous staining; a minimum of 200 cells was counted for each condition. YAP/TAZ localization was quantified (FIGS. 6-10, 24-26, and 29-30) using Gen5 (Biotek) software. Images were taken at 4× magnification of both DAPI and YAP/TAZ staining. […] Quantification of double positive (YAP/TAZ and αSMA) cells from lung tissue sections (FIG. 17-21) was performed similarly; however separate thresholds were established for both YAP/TAZ and αSMA. A minimum of 4000 cells was quantified for each mouse.

αSMA = αSMA intensity (fibroblast activation) in IPF patient-derived lung fibroblasts + TGFβ, dopaminergic agonist library; format: cell-based, human; conditions: 1 μM + TGFβ, 72 hours
Method: as §1

SMILES | Nuclear localization (% of total cells) (YAP/TAZ; IPF-1 patient fibroblasts) | Nuclear localization (% of total cells) (YAP/TAZ; IPF-2 patient fibroblasts) | Nuclear localization (% of total cells) (YAP/TAZ; IPF-3 patient fibroblasts) | Nuclear localization (% of total cells) (YAP/TAZ; IPF-4 patient fibroblasts) | αSMA intensity (% of DMSO control) (αSMA; IPF-1 patient fibroblasts) | αSMA intensity (% of DMSO control) (αSMA; IPF-2 patient fibroblasts) | αSMA intensity (% of DMSO control) (αSMA; IPF-3 patient fibroblasts) | αSMA intensity (% of DMSO control) (αSMA; IPF-4 patient fibroblasts)
CCCN(CCc1ccccc1)C1CCc2c(O)cccc2C1.Cl (racemic) [(±)-2-(N-phenylethyl-N-propyl)amino-5-hydroxytetralin] | 68.85 % of total cells | 60.86 % of total cells | 68 % of total cells | 56.552 % of total cells | 65.43 % of DMSO control | 52.77 % of DMSO control | 60.4844 % of DMSO control | 51.1 % of DMSO control
CCCN1CCO[C@@H]2c3cc(O)ccc3OC[C@H]21.Cl (racemic) [(±)-PD 128,907•HCl, (±)-PD 128,907] | 60.13 % of total cells | 49.54 % of total cells | 78.48 % of total cells | 60.66 % of total cells | 83.68 % of DMSO control | 85.45 % of DMSO control | 94.2538 % of DMSO control | 75.15 % of DMSO control
Br.C=CCN1CCc2c(cc(O)c(O)c2Cl)C(c2ccccc2)C1 (racemic) [(±)-SKF-82958•HBr, (±)-SKF-82958] | 29.15 % of total cells | 38 % of total cells | 38 % of total cells | 12.29 % of total cells | 11.78 % of DMSO control | 4.966 % of DMSO control | 2.428 % of DMSO control | 9.326 % of DMSO control
NCCc1ccc(O)cc1 [4-Hydroxyphenethylamine•HCl, 4-Hydroxyphenethylamine] | 56.52 % of total cells | 45.69 % of total cells | 76.57 % of total cells | 43.3719 % of total cells |  |  |  | 
Br.NC1CCc2cc(O)c(O)cc2C1 (stereo not shown) [6,7-ADTN•HBr, 6,7-ADTN] | 43.89 % of total cells | 44 % of total cells | 65.5 % of total cells | 52.65 % of total cells | 37.14 % of DMSO control | 4.182 % of DMSO control | 9.909 % of DMSO control | 4.888 % of DMSO control
CCCN(CCC)[C@@H]1CCc2c(OC)cccc2[C@@H]1C.O=C(O)/C=C/C(=O)O [(+)-UH 232 maleate, (+)-UH 232] | 61.9521 % of total cells | 68 % of total cells | 71.85 % of total cells | 67.27 % of total cells | 82.91 % of DMSO control | 63.85 % of DMSO control | 85.81 % of DMSO control | 65.71 % of DMSO control
NC[C@@H]1O[C@H](C23CC4CC(CC(C4)C2)C3)Cc2c1ccc(O)c2O [A-77636•HCl•H2O, A-77636] | 26.46 % of total cells | 30.88 % of total cells | 41.33 % of total cells | 37.79 % of total cells | 5.808 % of DMSO control | 0.7188 % of DMSO control | 0.06766 % of DMSO control | 12.43 % of DMSO control
C=CCN1CCc2nc(N)sc2CC1.Cl.Cl [B-HT 920•2HCl, B-HT 920] | 75.68 % of total cells | 46.9 % of total cells | 64.79 % of total cells | 76.24 % of total cells | 74.98 % of DMSO control | 58.97 % of DMSO control | 70.12 % of DMSO control | 54.23 % of DMSO control
CC(C)C[C@H]1C(=O)N2CCC[C@H]2[C@]2(O)O[C@](NC(=O)[C@@H]3C=C4c5cccc6[nH]c(Br)c(c56)C[C@H]4N(C)C3)(C(C)C)C(=O)N12 [Bromocriptine mesylate, Bromocriptine] | 73.03 % of total cells | 52.81 % of total cells | 64.09 % of total cells | 64.6 % of total cells |  |  |  | 
CN1Cc2ccccc2[C@@H]2c3cccc4[nH]cc(c34)C[C@H]21 [CY 208-243] | 20.52 % of total cells | 39.79 % of total cells | 41.17 % of total cells | 19.82 % of total cells | 21.01 % of DMSO control | 2.28 % of DMSO control | 2.611 % of DMSO control | 9.643 % of DMSO control
C=CCN1C[C@H](C(=O)N(CCCN(C)C)C(=O)NCC)C[C@@H]2c3cccc4[nH]cc(c34)C[C@H]21 [Cabergoline] | 57.02 % of total cells | 57.41 % of total cells | 45.95 % of total cells | 68.69 % of total cells |  |  |  | 
CCCN(CCC)CCc1ccc(O)c(O)c1 [Dipropyldopamine•HBr, Dipropyldopamine] | 69.18 % of total cells | 74.36 % of total cells | 65.5 % of total cells | 51.82 % of total cells | 48.72 % of DMSO control | 28.11 % of DMSO control | 40.34 % of DMSO control | 25.86 % of DMSO control
CCCN1CCC[C@@H]2Cc3nc(N)ncc3C[C@H]21.Cl.Cl [LY-163,502•2HCl, LY-163,502] | 73.37 % of total cells | 60.97 % of total cells | 59.43 % of total cells | 66.49 % of total cells | 88.99 % of DMSO control | 72.86 % of DMSO control | 75.3 % of DMSO control | 86.7894 % of DMSO control
CN1C[C@@H](NS(=O)(=O)N(C)C)C[C@@H]2c3cccc4c3c(cn4C)C[C@H]21 [Mesulergine•HCl, Mesulergine] | 37.81 % of total cells | 45.14 % of total cells | 78.625 % of total cells | 45.14 % of total cells |  |  |  | 
CCCN1C[C@H](CSC)C[C@@H]2c3cccc4[nH]cc(c34)C[C@H]21 [Pergolide mesylate, Pergolide] | 82.49 % of total cells | 69.37 % of total cells | 70.67 % of total cells | 65.58 % of total cells |  |  |  | 
c1cnc(N2CCN(Cc3ccc4c(c3)OCO4)CC2)nc1 [Piribedil•2HCl, Piribedil] | 61.58 % of total cells | 85.76 % of total cells | 59.05 % of total cells | 59.64 % of total cells |  |  |  | 
CCCN[C@H]1CCc2nc(N)sc2C1 [Pramipexole Dihydrochloride Monohydrate, Pramipexole] | 64.92 % of total cells | 47.65 % of total cells | 65.5 % of total cells | 58.97 % of total cells |  |  |  | 
Oc1cc2c(cc1O)[C@@H](c1ccccc1)CNCC2 [SKF 38393•HBr, SKF 38393] | 69.5873 % of total cells | 47.375 % of total cells | 61.33 % of total cells | 35.79 % of total cells |  |  |  | 
